Results taken from publication PMC5511861, “DS16570511 is a small-molecule inhibitor of the mitochondrial calcium uniporter” (Cell Death Discovery, 2017).

Experiments:
[1] = tested on: Ca2+ uptake of pig heart mitochondria; assay: Ca2+ uptake assay using isolated pig heart mitochondria (atomic absorbance spectrometer); format: biochemical; conditions: 100 μM CaCl2; read-out: IC50, inhibition of Ca2+ uptake of pig heart mitochondria
Protocol: We then asked whether DS16570511 inhibits Ca^2+ uptake in isolated mitochondria from animal heart. An atomic absorbance spectrometer-based detection method was employed to analyze intramitochondrial Ca^2+ levels. We prepared freshly isolated mitochondria from pig heart, and the mitochondria were incubated with 100 μM CaCl2.
(a) Effect of RuR on Ca^2+ uptake of pig heart mitochondria. […] Data are mean with S.E.M. from three independent samples. (b) Inhibition rate of RuR or DS16570511 on Ca^2+ uptake of pig heart mitochondria. Inhibition 0 or 100% is defined as a value of Ca^2+-untreated mitochondria or Ca^2+-treated mitochondria, respectively. Data are mean with S.E.M. from three independent samples. (c) Inhibition rate of RuR or DS16570511 on Ca^2+ uptake of rat heart mitochondria. Data are mean with S.E.M./variation from three or two independent samples for DS16570511 or RuR, respectively.
Mitochondria were isolated by using the mitochondria isolation kit and then dissolved in the swelling buffer. The protein concentration of the mitochondrial solution was 5 mg/ml. Thirty minutes after application of CaCl2 (final concentration of 100 μM) to the solution, the mitochondria were collected by centrifugation (3000 g) at 4 °C. The pellets were resuspended in the swelling buffer containing 1 μM RuR. After collection of the mitochondria by centrifugation (3000 g), the pellets were dried and dissolved by 40 μl of sulfuric acid at 95 °C.

MCU = target: T1, MCU (Homo sapiens, UniProt Q8NE86); assay: MCU-dependent mitochondrial Ca2+ influx in HEK293A cells overexpressing human MCU; format: cell-based; conditions: pretreatment
T1 construct: expressed in transfected cells; host or cells: HEK293A cells, transient co-transfection with the mitochondria-targeted aequorin vector
T1 sequence (Q8NE86 51-351): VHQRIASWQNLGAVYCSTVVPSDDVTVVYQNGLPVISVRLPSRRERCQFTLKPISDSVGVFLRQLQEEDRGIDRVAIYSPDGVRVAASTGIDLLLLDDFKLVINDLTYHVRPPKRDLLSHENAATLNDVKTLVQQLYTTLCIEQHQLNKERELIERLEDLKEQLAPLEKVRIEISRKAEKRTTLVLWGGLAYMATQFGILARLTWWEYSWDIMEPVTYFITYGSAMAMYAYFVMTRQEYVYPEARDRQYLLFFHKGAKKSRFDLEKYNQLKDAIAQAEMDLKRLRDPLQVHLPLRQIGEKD
T1 sequence (Q9H4I9 48-107 partner limits assumed): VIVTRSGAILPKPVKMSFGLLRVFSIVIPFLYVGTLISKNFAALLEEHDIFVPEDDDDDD
Description: Next, to investigate the molecular component of the mitochondrial calcium uniporter, MCU-dependent and MICU-dependent Ca^2+ influx were examined. […] The MCU-dependent increment of Ca^2+ influx was blocked by the DS16570511 pretreatment (Figure 5b). We then investigated the effects of the inhibitor on the regulatory subunit MICU1. Previous studies have shown that MICU1 facilitates mitochondrial Ca^2+ uptake through the presence of a high Ca^2+ level.[11],[22]
Figure 5 DS16570511 inhibits mitochondrial Ca^2+ influx by MCU or MICU1. (a) Effect of overexpression of MCU or MICU1 on mitochondrial Ca^2+ influx in HEK293A cells. (b) Effect of DS16570511 on MCU-dependent mitochondrial Ca^2+ uptake in HEK293A cells. (c) Effect of DS16570511 on MICU1-dependent mitochondrial Ca^2+ uptake in HEK293A cells. […]
In order to evaluate mitochondrial Ca^2+ uptake activity by MCU or MICU1, HEK293A cells were transiently transfected with the mitochondria-targeted aequorin vector and pcDNA3.1 vector containing human Mcu (NCBI Reference Sequence: NM_138357.2) or Micu1 (NM_001195518.1). One day after the transfection, the luminescence levels were measured as described above. MCU- or MICU1-dependent activity was calculated by subtracting the luminescence level of cells transfected with empty vector from that of cells expressing MCU or MICU1, respectively.

[2] = target: T2, mitochondrial calcium uniporter (Homo sapiens, UniProt Q8NE86); assay: Ca2+ uptake of isolated mitochondria from HEK293A cells (aequorin luminescence); format: biochemical; design: isolated mitochondria from HEK293A cells were used; endogenous in cells; host or cells: mitochondria isolated from HEK293A cells stably expressing mitochondria-targeted aequorin; conditions: 100 μM Ca2+, 5 min preincubation; read-out: IC50, inhibition of Ca2+ uptake of isolated mitochondria from HEK293A cells
T2 sequence (Q8NE86 51-351): T1 sequence (Q8NE86 51-351)
T2 sequence (Q9H4I9 48-107 partner limits assumed): T1 sequence (Q9H4I9 48-107 partner limits assumed)
Protocol: Mitochondrial Ca^2+ uptake activity is regulated by cytosolic protein kinase signaling,[19] raising the possibility that HTS hits contained indirect inhibitors of the uniporter, such as inhibitors of cytosolic signaling. To examine the direct inhibitory effect of the compounds on the mitochondrial Ca^2+ uptake, isolated mitochondria from HEK293A cells were used. Ca^2+ uptake of the isolated mitochondria was observed as a rapid increase in the luminescence level after application of 100 μM Ca^2+ (Figure 2a).
Figure 2 DS16570511 inhibits Ca^2+ uptake in isolated mitochondria from HEK293A cells. (a) Representative raw data of Ca^2+ uptake in isolated mitochondria. (b) Effect of DS16570511 or Ru360 on mitochondrial Ca^2+ uptake. The area under the curve of temporal aequorin activities is used for calculation of inhibitory activities. Inhibition 0 or 100% is defined as a value of […], respectively. Data are mean with S.E.M. from three independent samples.
To monitor Ca^2+ uptake activity of isolated mitochondria, mitochondria were prepared from the cells (1×10^8 cells) stably expressing mitochondria-targeted aequorin by using a mitochondria isolation kit. […] The luminescence levels were detected as described above.

For `Cc1onc(-c2c(Cl)cccc2Cl)c1CNc1cccc(C(=O)c2cn(CCCC(=O)O)c3ccccc23)c1` [DS16570511], the IC50 [1] was 15 µM, the “effect on MCU-dependent increment of mitochondrial Ca2+ influx” value (MCU) was “blocked” and the IC50 [2] was 0.86 µM.
